Patent publication US20070178161A1, “Use of n-acetryl-d-glucosamine in treating and controlling non-specific inflammations caused by physical or chemical factors” (priority 2003, published 2007)

What was measured:
[1] = tested on: burn models; assay: Burn test; type: in vivo, Wistar rats; settings: local application of solid powder, after 3 days, 10 rats per group (control: 2)
Text: 20 Wistar rats were randomly divided into two groups, i.e., control group and test group. The rats of both two groups were made as burn models by dressing gauze with hot distilled water. The rats of the control group were not treated, while the rats of the test group were locally treated by applying a solid powder of the compound of formula (I). After 3 days, 8 rats of the test group formed scab, while only 2 rats of the control group formed scab wherein liquor puris still accumulated below the scab.

[2] = tested on: blunt torn thigh muscle tissue of hind limb; assay: Blunt tearing tests of animals; type: in vivo, Kunming mice; settings: 1 ml, after 7 days
Experimental: 30 Kunming mice were randomly divided into two groups, i.e., 10 mice in control group and 20 mice in test group. The mice of both two groups were treated by a blunt tearing method, wherein a non-specific injury occurred in blunt torn thigh muscle tissue of hind limb of mice. […] 10 mice of control group were normally fed, while the mice of test group were administered with an aqueous solution of N-acetyl-D-glucosamine having a concentration of 5% by weight in a dosage of 1 ml, wherein 10 mice were administered by intra-peritoneal injection, another 10 mice were administered by intramuscular injection. […] The pathological changes of the mice of control group continuously developed or maintained on the original basis, wherein 4 mice suffered paralysis of the injured limb, and another 4 mice had flex and stretch dysfunction.

[3] = in vivo
Text: The toxicological test of the compound of formula (I) includes: • 1. Acute toxicity test: including tests of oral administration, intravenous injection administration, and maximum limit amount for administration; • 2. Ames test; • 3. Micronucleus test of mouse bone marrow cell; • 4. Abnormality test of mouse sperm; • 5. Aberration test of mouse testis chromosome; • 6. Chronic lethal test; • 7. Sub-chronic toxicity (feed for 90 days) test; • 8. Traditional deformity-inducing test.

[4] = tested on: burned voluntary patients; assay: Test for treatment of burn; type: in vivo; settings: sterilized powder on wound surface for 3 consecutive days, 10 patients
Text: In a collaborate project of the bum department of Third Military Medical University, a sterilized N-acetyl-D-glucosamine powder in a dose dependant upon wound surface area was applied to the wound surface of 10 burned voluntary patients for consecutive 3 days.

[5] = tested on: patients with cold injury; assay: Test for treatment of cold injury; type: in vivo; settings: 10 wt % aqueous solution, local, 1 ml to 10 ml per day
Experimental: 20 Patients with different levels of cold injury were divided into a test group and a control group. The patients in the test group were locally treated with a 10 wt % N-acetyl-D-glucosamine aqueous solution in a dose from 1 ml to 10 ml per day according to symptoms and individual conditions.

[6] = tested on: Proteus Mirabilis; assay: Promoting wave test (bio-wave model); type: cell-based; settings: final concentration 0.5% in LB plate, 37° C., 9 hours
[7] = tested on: patients with surgical trauma; assay: Test for treatment of surgical trauma; type: in vivo; settings: ointment 1 g/10 g in Vaseline, painted on wounds for 3 consecutive days, 8 patients
Experimental: 8 Patients with surgical trauma, and most of them were facial and forearm abrasion. An ointment with a concentration of 1 g/10 g was prepared by mixing N-acetyl-D-glucosamine and Vaseline, and was painted on wounded parts in a dose dependent upon the area of wound surface for consecutive 3 days.

[8] = 5% aqueous solution, i.p. or i.m., 20 mice in test group (control: 4 of 10)

Compound	rats of the test group that formed scab [1]	mice that suffered paralysis of the injured limb [2, 8]	mice with flex and stretch dysfunction [2, 8]	dosage at which acute toxicosis reaction had not appeared [3]	wound symptoms (edema, blood vessels, secretion) [4]	rate of cambium growth toward the center of the wound ([4]; from the 4th day)	recovery from cold injury [5]	bio-wave pattern of colony (concentric rings) [6]	movement of injured limb / mobility of test group ([2]; 5% by weight aqueous solution, intra-peritoneal or intramuscular injection, 20 mice)	healing of facial abrasion [7]	scar formation [7]
CC(=O)N[C@H]1C(O)O[C@H](CO)[C@@H](O)[C@@H]1O.Cl (stereo partly drawn) [N-acetyl-D-glucosamine hydrochloride]	6										
CC(=O)N[C@H]1C(O)O[C@H](CO)[C@@H](O)[C@@H]1O.O=S(=O)(O)O (stereo partly drawn) [N-acetyl-D-glucosamine sulfate]		2	2								
CC(=O)N[C@H]1C(O)O[C@H](CO)[C@@H](O)[C@@H]1O (stereo partly drawn) [compound of formula (I), N-acetyl-D-glucosamine]	8	one		more than 2 g/kg	edema was alleviated, blood vessel shrank, and secretion was reduced	1-2 mm per day	early recovery, and then inflammation and edema were eliminated	many fine waves on each ring	could free-run	rapidly healed	no scar was found on face
